# According to PMC3171403, “Two Functionally Distinctive Phosphopantetheinyl Transferases from Amoeba Dictyostelium discoideum” (PLoS ONE, 2011):
# Experiments:
# Type in all cases: biochemical
# [1] = molecular target: T1, DiAcpS (Dictyostelium discoideum, UniProt Q552R4); assay: gel-based radiolabel transfer to apo-ACP, phosphorimager; conditions: labelled compound; 5-45 uM; 20 uM enzyme; 54 uM mycobacterial ACP Rv1344; 12.5 mM MgCl2, Tris-Cl pH 8.0, 30 C (gel-binding assay); only kcat/Km in text
# T1 construct: gene DDB_G0275923; full gene (2 exons) in pET28a, N-terminal His6 tag, E. coli BL21(DE3); expected 20 kDa, runs at about 27 kDa
# [2] = molecular target: T2, DiSfp (Dictyostelium discoideum, UniProt Q54MI2); assay: as above; conditions: labelled compound; 5-45 uM; 20 uM enzyme; 54 uM mycobacterial PKS2; 12.5 mM MgCl2, Tris-Cl pH 8.0, 30 C (gel-binding assay); only kcat/Km in text
# T2 construct: gene DDB_G0285927; full gene (2 exons) in pET28a, N-terminal His6 tag, E. coli BL21(DE3); 34 kDa
# [3] = molecular target: T1, DiAcpS; assay: HPLC and MALDI-TOF of holo-ACP formation; conditions: 250 uM CoA; 54 uM apo-ACP (Rv1344 or Dictyostelium stand-alone ACP); 12.5 mM MgCl2, Tris-Cl pH 8.0, 37 C
# [4] = molecular target: T2, DiSfp; assay: HPLC and MALDI-TOF of holo-ACP formation; conditions: 250 uM CoA; 54 uM apo DiPKS16 ACP; 12.5 mM MgCl2, Tris-Cl pH 8.0, 37 C
# T2 sequence (Q54MI2 entry or part of it): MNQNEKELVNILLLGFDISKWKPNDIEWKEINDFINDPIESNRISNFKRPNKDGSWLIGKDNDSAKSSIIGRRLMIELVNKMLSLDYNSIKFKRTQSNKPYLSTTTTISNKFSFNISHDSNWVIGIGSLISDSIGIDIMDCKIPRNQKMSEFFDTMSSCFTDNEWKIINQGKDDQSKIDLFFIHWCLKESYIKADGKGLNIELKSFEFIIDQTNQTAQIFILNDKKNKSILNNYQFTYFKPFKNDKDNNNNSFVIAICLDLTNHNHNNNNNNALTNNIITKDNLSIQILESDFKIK
# T1 sequence (Q552R4 entry or part of it): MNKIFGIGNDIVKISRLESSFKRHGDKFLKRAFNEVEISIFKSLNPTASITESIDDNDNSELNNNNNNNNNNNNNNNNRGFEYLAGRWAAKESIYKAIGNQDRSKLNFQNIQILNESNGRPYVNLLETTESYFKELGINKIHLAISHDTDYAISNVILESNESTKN
smiles,measurement,setting,value
CC(=O)SCCNC(=O)CCNC(=O)[C@H](O)C(C)(C)COP(=O)(O)OP(=O)(O)OC[C@H]1O[C@@H](n2cnc3c(N)ncnc32)[C@H](O)[C@@H]1OP(=O)(O)O [acetyl CoA],"gel-based radiolabel transfer to apo-ACP, phosphorimager",[1],Kinetics of DiAcpS with the ACP was determined by varying the concentrations of acetyl CoA
same,"gel-based radiolabel transfer to apo-ACP, phosphorimager",[2],phosphopantetheinylation only by DiSfp and no activity could be observed for DiAcpS
CC(C)(COP(=O)(O)OP(=O)(O)OC[C@H]1O[C@@H](n2cnc3c(N)ncnc32)[C@H](O)[C@@H]1OP(=O)(O)O)[C@@H](O)C(=O)NCCC(=O)NCCS [coenzyme A],HPLC and MALDI-TOF of holo-ACP formation,[3],DiAcpS mediated conversion of apo- to holo-ACP resulted in shift in the retention time
same,HPLC and MALDI-TOF of holo-ACP formation,[4],DiSfp resulted in a shift of ACP retention time on reverse-phase column
